These results are taken from US20260364184A1, “COMPOUND BASED ON OXOISOINDOLINYL-SUBSTITUTED TETRAHYDROPYRIMIDINE-DIONE AND USE THEREOF” (GLUETACS THERAPEUTICS (SHANGHAI) CO., LTD., priority 2023, published 2026).

The structures appear in SMILES notation.

In general, inhibition refers to the change of the read-out against control, counted positive when it falls.

What all share (assay type): cell-based
In one assay the target is T1, BRG1 (Homo sapiens, UniProt P51532).
T1 construct: expression of target proteins in cells; endogenous in cells
Kind of assay: Western blot degradation of BRG1 (SMARCA4). Conditions: Molt-4 Cell; 24 hours. How it is done:
(§1) Conventional Western blot assay was performed to evaluate the effects of the compounds of the present disclosure on the expression of target proteins in cells.
(§2) (1) Cell Seeding and Protein Harvesting: The selected cells were processed according to the cell seeding procedure and protein harvesting procedure in Table II-2.
(§3) (2) To the collected supernatant, 5×SDS sample loading buffer was added, followed by denaturation at 95 °C for 5 minutes. The denatured samples were then separated by SDS-PAGE electrophoresis on a polyacrylamide gel. Proteins were transferred to a nitrocellulose membrane (0.45 μm NC membrane), blocked with blocking buffer at room temperature for 1 hour, and subjected to antibody incubation and development procedures according to the antibody manufacturer's instructions (Cell Signaling Technology).
(§4) Half-Maximal Degradation Concentration value (the drug concentration required for degrading proteins by 50%, abbreviated as DC50) reads method: comparing the grayscale values of Western blot bands from drug-treated samples with those from blank DMSO-treated controls, and identifying the drug concentration range at which the grayscale value is half that of the DMSO-treated control bands.
(§5) DC50 values can be calculated using ImageJ software to measure grayscale values of Western blot bands from drug-treated samples. The concentration-response curve is fitted to estimate the drug concentration corresponding to half the grayscale value.
(§6) Target protein remaining (%) refers to the percentage of target protein remaining in cells after treatment with protein degrader compounds.
(§7) Calculation method for target protein remaining (%): Use ImageJ software to measure grayscale values of Western blot bands from drug (protein degrader)-treated samples. The grayscale value of drug-treated bands is divided by that of internal control protein bands, and the resulting quotient is normalized to obtain the relative percentage of remaining target protein after protein degrader treatment.
(§8) Target protein degradation rate (%)=1−target protein remaining (%).
On the technique in general: A western blot detects proteins with antibodies after separation by electrophoresis.

The target in the next assay is T2, BRM (Homo sapiens, UniProt P51531).
T2 construct: expression of target proteins in cells; endogenous in cells
Put plainly: Western blot degradation of BRM (SMARCA2). The settings on record: Molt-4 Cell; 24 hours. Here is the method: as §1, §2, §3, §4, §5, §6, §7, §8

Another assay deals with T3, C-ABL (Homo sapiens, UniProt P00519).
T3 construct: K562 also holds p210 BCR-ABL (BCR P11274 fused to ABL1)
Kind of assay: Western blot degradation of C-ABL. Conditions: K562 Cell; 24 hours. How it is done:
as §1, §2, §3, §4, §5, §6, §7, §8

Assay [1] deals with Human myeloid monocytic leukemia cell line (MV-4-11). Put plainly: Inhibition of MV-4-11 cell proliferation (CellTiter luminescent viability). Conditions: Homo sapiens, MV4-11, Table IL2, BCR-ABL inhibitor-based, 96 hours; for inhibition at 0.01 µM: MV-4-11, 10 nM, read-out: Inhibition Rate at 10 nM (%); for inhibition at 0.5 µM: MV-4-11, 500 nM, read-out: Inhibition Rate at 500 nM (%). The procedure, abridged:
(§9)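 Cells are seeded in 96-well plates, cultured at 37 °C, 5% CO2, and treated next day with 5-fold serial compound dilutions (stock series from 2000 μM; 0.5 μL into 100 μL medium). Viability is read by CellTiter-Meiluncell luminescence after the set exposure, and IC50 is taken from growth-inhibition curves.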

Assay [2] deals with Human acute lymphocytic leukemia T lymphocytes cell line (CCRF-CEM). Put plainly: Inhibition of CCRF-CEM cell proliferation (CellTiter luminescent viability). Conditions: Homo sapiens, 96 h, Table IL3, BCR-ABL inhibitor-based; for inhibition at 0.01 µM: 10 nM, read-out: Inhibition Rate at 10 nM (%); for inhibition at 0.5 µM: 500 nM, read-out: Inhibition Rate at 500 nM (%).
For assay [3], the system named is Human Multiple myeloma cell line (MM.1S). Put plainly: Inhibition of MM.1S cell proliferation (CellTiter luminescent viability). Conditions: Homo sapiens, MM1.S, Table IL1, BCR-ABL inhibitor-based, 96 hours; for inhibition at 0.01 µM: 10 nM, read-out: Inhibition Rate at 10 nM (%); for inhibition at 0.5 µM: 500 nM, read-out: Inhibition Rate at 500 nM (%). The method, boiled down: as §9

T3 sequence (P00519 whole entry, the tested form may be a part): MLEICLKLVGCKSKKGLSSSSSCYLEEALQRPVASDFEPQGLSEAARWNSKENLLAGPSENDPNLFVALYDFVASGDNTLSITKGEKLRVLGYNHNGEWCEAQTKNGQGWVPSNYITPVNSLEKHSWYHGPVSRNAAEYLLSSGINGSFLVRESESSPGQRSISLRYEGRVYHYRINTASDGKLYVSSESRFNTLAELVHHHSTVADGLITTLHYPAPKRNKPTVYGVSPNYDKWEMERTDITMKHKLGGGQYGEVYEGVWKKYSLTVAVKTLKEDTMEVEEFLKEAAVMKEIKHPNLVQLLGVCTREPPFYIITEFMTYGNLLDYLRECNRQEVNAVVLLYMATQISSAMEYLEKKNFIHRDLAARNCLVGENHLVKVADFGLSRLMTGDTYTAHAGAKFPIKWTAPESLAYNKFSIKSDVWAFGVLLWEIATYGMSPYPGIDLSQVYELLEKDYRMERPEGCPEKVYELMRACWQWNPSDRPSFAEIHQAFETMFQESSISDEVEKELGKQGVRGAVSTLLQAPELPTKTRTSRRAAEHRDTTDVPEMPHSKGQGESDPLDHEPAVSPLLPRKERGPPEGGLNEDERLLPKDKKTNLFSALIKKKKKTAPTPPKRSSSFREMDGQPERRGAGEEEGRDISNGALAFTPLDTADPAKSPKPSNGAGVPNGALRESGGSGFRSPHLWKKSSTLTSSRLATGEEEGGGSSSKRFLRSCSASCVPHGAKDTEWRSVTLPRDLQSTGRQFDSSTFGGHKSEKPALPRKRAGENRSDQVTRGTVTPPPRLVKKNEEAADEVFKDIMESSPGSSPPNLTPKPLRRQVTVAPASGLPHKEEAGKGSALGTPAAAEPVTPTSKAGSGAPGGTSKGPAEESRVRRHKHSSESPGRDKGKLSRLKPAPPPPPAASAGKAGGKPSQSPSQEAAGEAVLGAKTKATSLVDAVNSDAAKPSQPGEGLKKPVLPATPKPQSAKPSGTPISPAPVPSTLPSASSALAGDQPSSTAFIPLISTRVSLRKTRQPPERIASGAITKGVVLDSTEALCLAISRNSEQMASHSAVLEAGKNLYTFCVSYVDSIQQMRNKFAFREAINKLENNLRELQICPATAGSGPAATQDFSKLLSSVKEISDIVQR
T3 sequence (Q96SW2 whole entry partner, the tested form may be a part): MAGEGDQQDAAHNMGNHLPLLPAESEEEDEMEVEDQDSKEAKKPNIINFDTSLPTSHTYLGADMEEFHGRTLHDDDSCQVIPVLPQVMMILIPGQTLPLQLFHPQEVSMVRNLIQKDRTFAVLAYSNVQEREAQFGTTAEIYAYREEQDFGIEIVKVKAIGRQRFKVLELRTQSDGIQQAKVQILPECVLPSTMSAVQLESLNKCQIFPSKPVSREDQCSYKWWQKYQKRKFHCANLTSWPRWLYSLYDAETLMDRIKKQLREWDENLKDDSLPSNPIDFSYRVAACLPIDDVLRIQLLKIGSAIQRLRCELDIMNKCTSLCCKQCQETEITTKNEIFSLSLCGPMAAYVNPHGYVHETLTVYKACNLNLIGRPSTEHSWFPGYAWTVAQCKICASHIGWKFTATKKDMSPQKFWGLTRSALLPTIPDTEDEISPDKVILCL
T1 sequence (P51532 whole entry): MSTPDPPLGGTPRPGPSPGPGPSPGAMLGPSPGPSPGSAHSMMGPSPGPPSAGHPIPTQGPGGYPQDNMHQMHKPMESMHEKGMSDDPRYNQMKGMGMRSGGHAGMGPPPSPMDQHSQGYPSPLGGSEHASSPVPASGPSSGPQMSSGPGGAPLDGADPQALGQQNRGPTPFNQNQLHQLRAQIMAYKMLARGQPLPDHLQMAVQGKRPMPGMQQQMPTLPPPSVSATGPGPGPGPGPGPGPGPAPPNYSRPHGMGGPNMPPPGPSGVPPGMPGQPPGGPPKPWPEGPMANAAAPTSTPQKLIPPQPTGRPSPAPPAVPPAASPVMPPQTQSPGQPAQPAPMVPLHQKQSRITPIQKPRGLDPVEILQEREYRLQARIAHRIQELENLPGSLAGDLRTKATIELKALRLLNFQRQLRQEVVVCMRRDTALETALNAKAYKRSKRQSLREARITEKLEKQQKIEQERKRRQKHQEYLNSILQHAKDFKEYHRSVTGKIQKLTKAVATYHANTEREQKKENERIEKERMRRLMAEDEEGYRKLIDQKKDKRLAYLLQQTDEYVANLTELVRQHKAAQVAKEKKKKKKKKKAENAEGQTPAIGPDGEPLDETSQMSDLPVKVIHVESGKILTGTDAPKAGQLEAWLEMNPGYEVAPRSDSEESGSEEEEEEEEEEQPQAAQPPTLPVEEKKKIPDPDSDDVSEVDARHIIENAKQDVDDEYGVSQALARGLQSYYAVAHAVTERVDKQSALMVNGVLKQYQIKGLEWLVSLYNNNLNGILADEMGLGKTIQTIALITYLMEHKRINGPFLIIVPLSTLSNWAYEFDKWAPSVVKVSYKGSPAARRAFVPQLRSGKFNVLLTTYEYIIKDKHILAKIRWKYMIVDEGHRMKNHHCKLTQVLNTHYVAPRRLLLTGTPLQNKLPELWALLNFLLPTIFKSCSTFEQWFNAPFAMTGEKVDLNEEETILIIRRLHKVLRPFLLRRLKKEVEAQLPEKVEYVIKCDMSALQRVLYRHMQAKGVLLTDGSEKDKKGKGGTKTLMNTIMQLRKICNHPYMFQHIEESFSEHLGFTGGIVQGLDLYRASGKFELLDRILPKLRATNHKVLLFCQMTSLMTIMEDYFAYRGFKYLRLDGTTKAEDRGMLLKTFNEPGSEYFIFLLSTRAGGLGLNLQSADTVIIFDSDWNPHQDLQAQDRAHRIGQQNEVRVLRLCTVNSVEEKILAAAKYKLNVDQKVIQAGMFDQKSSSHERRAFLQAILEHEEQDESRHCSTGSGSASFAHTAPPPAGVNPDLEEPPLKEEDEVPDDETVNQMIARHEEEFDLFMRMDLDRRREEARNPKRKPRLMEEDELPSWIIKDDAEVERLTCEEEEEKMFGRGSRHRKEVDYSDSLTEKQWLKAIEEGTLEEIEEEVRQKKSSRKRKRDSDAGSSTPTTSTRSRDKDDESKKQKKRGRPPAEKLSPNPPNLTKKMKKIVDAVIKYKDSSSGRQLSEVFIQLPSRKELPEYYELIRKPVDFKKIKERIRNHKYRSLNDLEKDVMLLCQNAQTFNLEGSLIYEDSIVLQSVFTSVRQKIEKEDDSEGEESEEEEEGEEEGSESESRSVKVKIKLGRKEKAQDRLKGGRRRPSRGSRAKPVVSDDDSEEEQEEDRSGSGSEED
T2 sequence (P51531 whole entry): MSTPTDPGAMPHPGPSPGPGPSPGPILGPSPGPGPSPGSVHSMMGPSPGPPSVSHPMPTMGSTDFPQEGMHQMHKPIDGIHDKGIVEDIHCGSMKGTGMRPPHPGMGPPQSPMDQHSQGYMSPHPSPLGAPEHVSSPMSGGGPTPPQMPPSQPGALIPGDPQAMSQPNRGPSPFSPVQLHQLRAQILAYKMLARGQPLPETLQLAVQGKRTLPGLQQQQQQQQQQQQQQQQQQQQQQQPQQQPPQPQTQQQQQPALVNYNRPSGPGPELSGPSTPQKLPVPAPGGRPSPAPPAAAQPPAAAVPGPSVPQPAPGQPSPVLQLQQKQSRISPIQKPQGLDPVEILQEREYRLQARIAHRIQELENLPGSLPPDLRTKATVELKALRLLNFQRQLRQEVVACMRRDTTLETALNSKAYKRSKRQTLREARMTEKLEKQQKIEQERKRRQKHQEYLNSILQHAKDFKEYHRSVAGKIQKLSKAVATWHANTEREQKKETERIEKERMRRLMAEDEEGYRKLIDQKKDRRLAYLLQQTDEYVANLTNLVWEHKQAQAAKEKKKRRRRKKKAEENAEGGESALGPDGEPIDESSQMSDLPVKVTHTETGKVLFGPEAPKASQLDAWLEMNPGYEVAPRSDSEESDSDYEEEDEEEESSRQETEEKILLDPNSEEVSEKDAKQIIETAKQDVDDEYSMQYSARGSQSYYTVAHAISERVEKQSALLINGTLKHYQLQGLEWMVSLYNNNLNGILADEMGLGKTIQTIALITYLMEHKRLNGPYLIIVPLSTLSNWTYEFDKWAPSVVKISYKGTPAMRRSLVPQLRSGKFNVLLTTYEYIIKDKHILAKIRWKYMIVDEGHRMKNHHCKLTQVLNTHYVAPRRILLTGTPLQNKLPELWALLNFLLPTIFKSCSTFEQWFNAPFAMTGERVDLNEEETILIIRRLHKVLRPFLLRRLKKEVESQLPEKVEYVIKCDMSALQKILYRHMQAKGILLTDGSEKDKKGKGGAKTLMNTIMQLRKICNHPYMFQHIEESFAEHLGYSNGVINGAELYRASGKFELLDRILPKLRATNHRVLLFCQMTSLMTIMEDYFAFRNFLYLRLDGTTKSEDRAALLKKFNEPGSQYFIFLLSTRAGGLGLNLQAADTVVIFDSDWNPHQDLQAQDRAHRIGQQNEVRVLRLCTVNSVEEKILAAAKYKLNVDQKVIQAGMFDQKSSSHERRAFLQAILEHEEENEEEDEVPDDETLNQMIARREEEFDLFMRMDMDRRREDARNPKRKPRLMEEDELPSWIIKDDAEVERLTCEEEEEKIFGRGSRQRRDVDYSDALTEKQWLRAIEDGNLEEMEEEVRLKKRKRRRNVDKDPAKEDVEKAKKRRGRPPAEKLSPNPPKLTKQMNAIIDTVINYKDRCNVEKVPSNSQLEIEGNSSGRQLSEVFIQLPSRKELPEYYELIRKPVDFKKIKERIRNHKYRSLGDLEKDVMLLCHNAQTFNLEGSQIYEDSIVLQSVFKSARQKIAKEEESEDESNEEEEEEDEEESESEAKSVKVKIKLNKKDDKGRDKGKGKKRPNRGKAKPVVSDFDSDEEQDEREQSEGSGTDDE

Regarding `Nc1nnc(-c2ccccc2O)cc1N1CCN(CC2CCN(C3CCN(c4ccc5c(c4)C(=O)N(N4CCC(=O)NC4=O)C5=O)CC3)CC2)CC1` [GT-05095, 5-(4-((4-(3-amino-6-(2-hydroxyphenyl)pyridazin-4-yl)piperazin-1-yl)methyl)-[1,4′-bipiperidin]-1′-yl)-2-(2,4-dioxotetrahydropyrimidin-1(2H)-yl)isoindoline-1,3-dione], the “Degradation of substrate protein BRG1 (substrate protein remaining %)” value on BRG1 is reported as “B (80%<substrate protein remaining %≤100%)”. In addition, on BRM, the “Degradation of substrate protein BRM (substrate protein remaining %)” value was “A (0%≤substrate protein remaining %≤80%)”.
Take `Cc1ccc(C(=O)Nc2ccc(CN3CCN(Cc4ccc5c(c4)CN(N4CCC(=O)NC4=O)C5=O)CC3)c(C(F)(F)F)c2)cc1C#Cc1cnc2cccnn12` [GT-08216, N-(4-((4-((2-(2,4-dioxotetrahydropyrimidin-1(2H)-yl)-1-oxoisoindolin-5-yl)methyl)piperazin-1-yl)methyl)-3-(trifluoromethyl)phenyl)-3-(imidazo[1,2-b]pyridazin-3-ylethynyl)-4-methylbenzamide]: at C-ABL, the “Degradation of substrate protein C-ABL; BCR-ABL (substrate protein remaining %)” value is given as “A (0%≤substrate protein remaining %≤80%)”. Further, the inhibition at 0.01 µM in assay [1] lay in the range of 80 to 100%; in assay [2] it was 20 to 30%; in assay [3] it was 20 to 30%. In addition, the inhibition at 0.5 µM in assay [1], in assay [2] and in assay [3] was 80 to 100% each time.
For `Cc1ccc(C(=O)Nc2ccc(N3CCN(Cc4ccc5c(c4)C(=O)N(N4CCC(=O)NC4=O)C5=O)CC3)c(C(F)(F)F)c2)cc1C#Cc1cnc2cccnn12` [GT-08219, N-(4-(4-((2-(2,4-dioxotetrahydropyrimidin-1(2H)-yl)-1,3-dioxoisoindolin-5-yl)methyl)piperazin-1-yl)-3-(trifluoromethyl)phenyl)-3-(imidazo[1,2-b]pyridazin-3-ylethynyl)-4-methylbenzamide], at C-ABL, the “Degradation of substrate protein C-ABL; BCR-ABL (substrate protein remaining %)” value is on record as “A (0%≤substrate protein remaining %≤80%)”.
For the molecule `Cc1ccc(C(=O)Nc2ccc(N3CCC(N(C)Cc4ccc5c(c4)CN(N4CCC(=O)NC4=O)C5=O)CC3)c(C(F)(F)F)c2)cc1C#Cc1cnc2cccnn12` [GT-08220, N-(4-(4-(((2-(2,4-dioxotetrahydropyrimidin-1(2H)-yl)-1-oxoisoindolin-5-yl)methyl)(methyl)amino)piperidin-1-yl)-3-(trifluoromethyl)phenyl)-3-(imidazo[1,2-b]pyridazin-3-ylethynyl)-4-methylbenzamide], on C-ABL, the “Degradation of substrate protein C-ABL; BCR-ABL (substrate protein remaining %)” value is reported as “A (0%≤substrate protein remaining %≤80%)”. For the same molecule, in assay [1], the inhibition at 0.01 µM is -5 to 0% and the inhibition at 0.5 µM is 80 to 100%.
As for `Cc1ccc(C(=O)Nc2ccc(CN3CCN(CC4CCN(c5ccc6c(c5)C(=O)N(N5CCC(=O)NC5=O)C6=O)CC4)CC3)c(C(F)(F)F)c2)cc1C#Cc1cnc2cccnn12` [GT-08352, N-(4-((4-((1-(2-(2,4-dioxotetrahydropyrimidin-1(2H)-yl)-1,3-dioxoisoindolin-5-yl)piperidin-4-yl)methyl)piperazin-1-yl)methyl)-3-(trifluoromethyl)phenyl)-3-(imidazo[1,2-b]pyridazin-3-ylethynyl)-4-methylbenzamide], the “Degradation of substrate protein C-ABL; BCR-ABL (substrate protein remaining %)” value at C-ABL was “A (0%≤substrate protein remaining %≤80%)”. In addition, the inhibition at 0.01 µM in assay [1] is 30 to 40%; in assay [2], 15 to 20%. The figures for the inhibition at 0.5 µM in assay [1] and in assay [2] were 80 to 100% and 20 to 30%, respectively.
With `O=C1CCN(N2C(=O)c3ccc(N4CCC(CN5CCN(c6ncc(C(=O)Nc7ccc(OC(F)(F)Cl)cc7)cc6-c6cc[nH]n6)CC5)CC4)cc3C2=O)C(=O)N1` [GT-08356, N-(4-(chlorodifluoromethoxy)phenyl)-6-(4-((1-(2-(2,4-dioxotetrahydropyrimidin-1(2H)-yl)-1,3-dioxoisoindolin-5-yl)piperidin-4-yl)methyl)piperazin-1-yl)-5-(1H-pyrazol-3-yl)nicotinamide], the “Degradation of substrate protein C-ABL; BCR-ABL (substrate protein remaining %)” value on C-ABL was “A (0%≤substrate protein remaining %≤80%)”. For the same molecule, in assay [3], the inhibition at 0.01 µM is 20 to 30% and the inhibition at 0.5 µM lay within 30 to 40%.
For the molecule `O=C1CCN(N2C(=O)c3cccc(N4CCC(CN5CCN(c6ncc(C(=O)Nc7ccc(OC(F)(F)Cl)cc7)cc6-c6cc[nH]n6)CC5)CC4)c3C2=O)C(=O)N1` [GT-08357, N-(4-(chlorodifluoromethoxy)phenyl)-6-(4-((1-(2-(2,4-dioxotetrahydropyrimidin-1(2H)-yl)-1,3-dioxoisoindolin-4-yl)piperidin-4-yl)methyl)piperazin-1-yl)-5-(1H-pyrazol-3-yl)nicotinamide], at C-ABL, the “Degradation of substrate protein C-ABL; BCR-ABL (substrate protein remaining %)” value is on record as “A (0%≤substrate protein remaining %≤80%)”.
On the same count and under the same terms, the entry for `O=C1CCN(N2C(=O)c3ccc(N4CCC(CN5CCC(N6CCN(c7ncc(C(=O)Nc8ccc(OC(F)(F)Cl)cc8)cc7-c7cc[nH]n7)CC6)CC5)CC4)cc3C2=O)C(=O)N1` [GT-08358, N-(4-(chlorodifluoromethoxy)phenyl)-6-(4-(1-((1-(2-(2,4-dioxotetrahydropyrimidin-1(2H)-yl)-1,3-dioxoisoindolin-5-yl)piperidin-4-yl)methyl)piperidin-4-yl)piperazin-1-yl)-5-(1H-pyrazol-3-yl)nicotinamide] is “A (0%≤substrate protein remaining %≤80%)”.
Take `O=C1CCN(N2C(=O)c3cccc(N4CCC(CN5CCC(N6CCN(c7ncc(C(=O)Nc8ccc(OC(F)(F)Cl)cc8)cc7-c7cc[nH]n7)CC6)CC5)CC4)c3C2=O)C(=O)N1` [GT-08359, N-(4-(chlorodifluoromethoxy)phenyl)-6-(4-(1-((1-(2-(2,4-dioxotetrahydropyrimidin-1(2H)-yl)-1,3-dioxoisoindolin-4-yl)piperidin-4-yl)methyl)piperidin-4-yl)piperazin-1-yl)-5-(1H-pyrazol-3-yl)nicotinamide]: the “Degradation of substrate protein C-ABL; BCR-ABL (substrate protein remaining %)” value at C-ABL is “A (0%≤substrate protein remaining %≤80%)”. For the same molecule, in assay [2], the inhibition at 0.01 µM is 15 to 20% and the inhibition at 0.5 µM lay in the range of 20 to 30%. Moreover, in assay [3], the inhibition at 0.01 µM was in the range of 10 to 15% and the inhibition at 0.5 µM was in the range of 30 to 40%.
For `O=C1CCN(N2C(=O)c3ccc(N4CCC(CN5CCN(C6CCN(c7ncc(C(=O)Nc8ccc(OC(F)(F)Cl)cc8)cc7-c7cc[nH]n7)CC6)CC5)CC4)cc3C2=O)C(=O)N1` [GT-08360, N-(4-(chlorodifluoromethoxy)phenyl)-6-(4-(4-((1-(2-(2,4-dioxotetrahydropyrimidin-1(2H)-yl)-1,3-dioxoisoindolin-5-yl)piperidin-4-yl)methyl)piperazin-1-yl)piperidin-1-yl)-5-(1H-pyrazol-3-yl)nicotinamide], on C-ABL, the “Degradation of substrate protein C-ABL; BCR-ABL (substrate protein remaining %)” value is “A (0%≤substrate protein remaining %≤80%)”. The results for the inhibition at 0.01 µM in assay [2] and in assay [3] were 20 to 30% and 5 to 10%, respectively. The inhibition at 0.5 µM was 30 to 40% in assay [2] and 20 to 30% in assay [3].
For the molecule `O=C1CCN(N2C(=O)c3cccc(N4CCC(CN5CCN(C6CCN(c7ncc(C(=O)Nc8ccc(OC(F)(F)Cl)cc8)cc7-c7cc[nH]n7)CC6)CC5)CC4)c3C2=O)C(=O)N1` [GT-08361, N-(4-(chlorodifluoromethoxy)phenyl)-6-(4-(4-((1-(2-(2,4-dioxotetrahydropyrimidin-1(2H)-yl)-1,3-dioxoisoindolin-4-yl)piperidin-4-yl)methyl)piperazin-1-yl)piperidin-1-yl)-5-(1H-pyrazol-3-yl)nicotinamide], the “Degradation of substrate protein C-ABL; BCR-ABL (substrate protein remaining %)” value at C-ABL is recorded as “A (0%≤substrate protein remaining %≤80%)”. In assay [2], the inhibition at 0.01 µM lay within 20 to 30% and the inhibition at 0.5 µM lay within 20 to 30%.
